Assay results published in the CheMixHub viscosity set.
Several values for one entry are separate records, joined by “and”; a condition that tells them apart may be missing. Equal entries are not always repeated. ± gives the uncertainty stated by the source.

Columns and labels:
[1] = xn = mol fraction of the nth substance listed

CC(C)Cc1ccccc1
viscosity [mPa·s]
Conditions | 293.15 K | 303.15 K | 313.15 K | 323.15 K
101 kPa | – | 0.899 ± 0.012 | 0.771 ± 0.011 | –
102 kPa | 1.02 ± 0.02 | 0.883 ± 0.021 | 0.769 ± 0.021 | 0.68 ± 0.021

CC=CC(=O)OCC
101 kPa
Conditions | viscosity [mPa·s]
293.15 K | 0.8184 ± 0.0094
298.15 K | 0.7576 ± 0.0088
303.15 K | 0.7053 ± 0.0082
313.15 K | 0.6154 ± 0.0072
323.15 K | 0.5471 ± 0.0065

CCC(C)CC
101.33 kPa
Conditions | viscosity [mPa·s]
298 K | 0.288 ± 0.005
298.15 K | 0.2909 ± 0.0031

CCCC[N+]1(C)CCCC1.O=S(=O)([N-]S(=O)(=O)C(F)(F)F)C(F)(F)F
viscosity
Conditions | 293.15 K | 295.2 K | 298.15 K | 303.15 K | 308.15 K | 313.15 K | 318.15 K
100 kPa | 97.99 ± 3.1 mPa·s and 90.17 ± 2.1 mPa·s | – | 74.9 ± 1.7 mPa·s and 70.12 ± 1.5 mPa·s | 61.58 ± 1.9 mPa·s and 56.19 ± 1.2 mPa·s | 50.81 ± 1.6 mPa·s and 45.8 ± 0.97 mPa·s | 37.99 ± 0.8 mPa·s | 34.58 ± 1.1 mPa·s
101 kPa | 86.03 ± 3.6 mPa·s and 86.05 ± 1.3 mPa·s | – | 68.14 ± 2.8 mPa·s and 68.16 ± 0.81 mPa·s and 70.5 ± 1.8 mPa·s | 54.03 ± 2.2 mPa·s and 54.05 ± 0.5 mPa·s | 44.37 ± 1.8 mPa·s and 44.38 ± 0.45 mPa·s | 42 ± 4.3 mPa·s and 35.75 ± 1.5 mPa·s and 35.76 ± 0.36 mPa·s | 29.71 ± 1.2 mPa·s and 29.72 ± 0.3 mPa·s
101.3 kPa | – | 80 ± 6.8 mPa·s | – | – | – | – | –

CCC[NH3+].O=[N+]([O-])[O-]
Conditions | viscosity [mPa·s]
298 K, 101 kPa | 72.61 ± 2.6

CC[n+]1ccccc1.O=S(=O)([O-])C(F)(F)F
101 kPa
Conditions | viscosity [mPa·s]
293.15 K | 75.2 ± 4.6
298.15 K | 60.58 ± 3.7
303.15 K | 48.77 ± 3
313.15 K | 33.78 ± 2.1
323.15 K | 24.47 ± 1.5

CN(c1ccccc1)c1ccccc1
101 kPa
Conditions | viscosity
293.15 K | 7.25 ± 0.08 mPa·s
293.25 K | 7.22 ± 0.08 mPa·s
303.15 K | 5.13 ± 0.06 mPa·s
313.15 K | 3.84 ± 0.04 mPa·s and 3.835 ± 0.037 mPa·s

Cc1cc(C)cc(C)c1
Conditions | viscosity
293.15 K, 101 kPa | 0.692 ± 0.011 mPa·s and 0.721 ± 0.014 mPa·s
293.15 K, 101.33 kPa | 0.692 ± 0.007 mPa·s
293.15 K, 102 kPa | 0.699 ± 0.021 mPa·s
295.01 K, 101.33 kPa | 0.6861 ± 0.0098 mPa·s
298.15 K, 101 kPa | 0.6025 ± 0.01 mPa·s and 0.6518 ± 0.017 mPa·s
298.15 K, 101.3 kPa | 0.656 ± 0.035 mPa·s and 0.671 ± 0.007 mPa·s
298.15 K, 101.33 kPa | 0.6 ± 0.008 mPa·s and 0.658 ± 0.005 mPa·s
298.38 K, 100 kPa | 0.6595 ± 0.0095 mPa·s
298.38 K, 101.33 kPa | 0.6595 ± 0.0096 mPa·s
302.82 K, 101.33 kPa | 0.6227 ± 0.0091 mPa·s
303 K, 101 kPa | 0.6123 ± 0.0051 mPa·s and 0.6124 ± 0.0051 mPa·s
303.15 K, 101 kPa | 0.633 ± 0.017 mPa·s and 0.612 ± 0.011 mPa·s
303.15 K, 101.3 kPa | 0.616 ± 0.033 mPa·s and 0.624 ± 0.007 mPa·s
303.15 K, 101.33 kPa | 0.564 ± 0.008 mPa·s
303.15 K, 102 kPa | 0.606 ± 0.021 mPa·s
307.35 K, 101.33 kPa | 0.584 ± 0.0099 mPa·s
307.4 K, 101.33 kPa | 0.309 ± 0.003 mPa·s
307.78 K, 101.33 kPa | 0.5879 ± 0.0087 mPa·s
308.15 K, 101.3 kPa | 0.581 ± 0.031 mPa·s and 0.589 ± 0.007 mPa·s
308.15 K, 101.33 kPa | 0.5482 ± 0.0074 mPa·s and 0.585 ± 0.005 mPa·s
308.5 K, 101 kPa | 0.597 ± 0.016 mPa·s
312.69 K, 100 kPa | 0.5561 ± 0.0084 mPa·s
312.69 K, 101.33 kPa | 0.5561 ± 0.0084 mPa·s
313 K, 101 kPa | 0.5482 ± 0.0046 mPa·s and 0.5481 ± 0.0046 mPa·s
313.15 K, 102 kPa | 0.534 ± 0.021 mPa·s
317.53 K, 101.33 kPa | 0.5269 ± 0.0081 mPa·s
318.15 K, 101 kPa | 0.3678 ± 0.11 mPa·s and 0.52 ± 0.011 mPa·s
322.26 K, 101.33 kPa | 0.5017 ± 0.0078 mPa·s
323 K, 101 kPa | 0.491 ± 0.0042 mPa·s and 0.4898 ± 0.0042 mPa·s
323.15 K, 101 kPa | 0.495 ± 0.011 mPa·s
323.15 K, 102 kPa | 0.476 ± 0.021 mPa·s

OCCCCO
viscosity
Conditions | 293.15 K | 298.15 K | 303.15 K | 308.15 K | 313.15 K | 318.15 K | 323.15 K
101 kPa | 96.5 ± 13 mPa·s and 96.8 ± 2.2 mPa·s | 72.8 ± 5.7 mPa·s and 72.1 ± 1.5 mPa·s and 75.6 ± 0.71 mPa·s | 54.3 ± 0.98 mPa·s and 57.2 ± 1.2 mPa·s and 50.53 ± 0.25 mPa·s | – | 32.8 ± 1.6 mPa·s and 35.4 ± 0.7 mPa·s and 37.03 ± 0.24 mPa·s | – | –
101.3 kPa | 92.14 ± 4.1 mPa·s | 71.91 ± 3 mPa·s | – | 45.04 ± 1.8 mPa·s | 36.26 ± 1.5 mPa·s | 29.38 ± 1.2 mPa·s | 24.18 ± 0.99 mPa·s
101.33 kPa | 91.27 ± 3.8 mPa·s | 72.83 ± 3 mPa·s | 56.05 ± 2.3 mPa·s | 45.06 ± 1.8 mPa·s | 36.02 ± 1.5 mPa·s | 30.61 ± 1.2 mPa·s | –

[Cl-].[Cl-].[Cl-].[Cl-].[Sn+4]
101 kPa
Conditions | viscosity
293.15 K | 0.951 ± 0.016 mPa·s and 0.927 ± 0.044 mPa·s
298.15 K | 0.919 ± 0.024 mPa·s and 0.8145 ± 0.021 mPa·s
313.15 K | 0.715 ± 0.012 mPa·s and 0.758 ± 0.038 mPa·s
323.15 K | 0.668 ± 0.018 mPa·s and 0.683 ± 0.028 mPa·s and 0.683 ± 0.007 mPa·s

O=P(O)(O)OP(=O)(O)O + O
viscosity, [1], 101 kPa
Conditions | 313 K | 323 K
x1 = 0.009 | 0.95 ± 0.03 mPa·s and 0.8 ± 0.02 mPa·s | –
x1 = 0.015 | 1.49 ± 0.04 mPa·s and 1.2 ± 0.03 mPa·s | –
x1 = 0.02 | 1.75 ± 0.05 mPa·s | 1.39 ± 0.04 mPa·s
x1 = 0.026 | 2.86 ± 0.08 mPa·s | 2.38 ± 0.07 mPa·s
x1 = 0.03 | 4.79 ± 0.13 mPa·s and 3.85 ± 0.11 mPa·s | –
x1 = 0.0306 | 3.76 ± 0.11 mPa·s | 2.03 ± 0.06 mPa·s
x1 = 0.04 | 5.82 ± 0.16 mPa·s and 4.7 ± 0.13 mPa·s | –
x1 = 0.045 | 7.65 ± 0.21 mPa·s | 6.05 ± 0.17 mPa·s
x1 = 0.051 | 9.8 ± 0.27 mPa·s and 6.88 ± 0.19 mPa·s | –
x1 = 0.055 | 10.9 ± 0.3 mPa·s and 8.82 ± 0.25 mPa·s | –
x1 = 0.062 | 15.6 ± 0.44 mPa·s | 12.16 ± 0.34 mPa·s

O=S(=O)(O)CCCN1CCOCC1 + O
viscosity [mPa·s], [1], 101.3 kPa
Conditions | x1 = 0.003708 | x1 = 0.007256 | x1 = 0.009684 | x1 = 0.01083 | x1 = 0.01439 | x1 = 0.0179
298.15 K | 0.947 ± 0.038 | 1.027 ± 0.042 | 1.07 ± 0.043 | 1.098 ± 0.045 | 1.189 ± 0.048 | 1.276 ± 0.052
308.15 K | 0.765 ± 0.031 | 0.826 ± 0.034 | 0.863 ± 0.035 | 0.886 ± 0.036 | 0.963 ± 0.039 | 1.03 ± 0.042
318.15 K | 0.634 ± 0.026 | 0.684 ± 0.028 | 0.711 ± 0.029 | 0.733 ± 0.03 | 0.797 ± 0.032 | 0.851 ± 0.035

OCCC1CCCCN1 (stereo not drawn) + O
viscosity [mPa·s], [1], 101.3 kPa
Conditions | x1 = 0.0153 | x1 = 0.0564 | x1 = 0.102 | x1 = 0.173 | x1 = 0.295
298.15 K | 1.426 ± 0.022 | 3.959 ± 0.058 | 9.631 ± 0.12 | 24.9 ± 0.31 | 89.03 ± 2.3
313.15 K | 1.025 ± 0.016 | 2.371 ± 0.035 | 5.15 ± 0.074 | 11.33 ± 0.14 | 35.53 ± 0.41

Cc1cc(C)cc(C)c1 + O=C1CCCCC1
viscosity [mPa·s], [1], 101.33 kPa
Conditions | x2 = 0.0996 | x2 = 0.1988 | x2 = 0.3039 | x2 = 0.4042 | x2 = 0.5038 | x2 = 0.602 | x2 = 0.7001 | x2 = 0.8014 | x2 = 0.8988
298.15 K | 0.702 ± 0.005 | 0.75 ± 0.006 | 0.81 ± 0.006 | 0.882 ± 0.006 | 0.965 ± 0.007 | 1.067 ± 0.007 | 1.193 ± 0.008 | 1.375 ± 0.009 | 1.607 ± 0.01
303.15 K | 0.657 ± 0.005 | 0.702 ± 0.005 | 0.755 ± 0.005 | 0.819 ± 0.006 | 0.896 ± 0.006 | 0.987 ± 0.007 | 1.115 ± 0.007 | 1.258 ± 0.008 | 1.484 ± 0.009
308.15 K | 0.619 ± 0.005 | 0.659 ± 0.005 | 0.706 ± 0.005 | 0.765 ± 0.005 | 0.835 ± 0.006 | 0.915 ± 0.006 | 1.027 ± 0.007 | 1.168 ± 0.008 | 1.373 ± 0.009
